Where “and” joins values, the source holds several entries; their conditions need not be identical. Equal values may be shown once.
Assay: Study #2 Phase 1: pharmacokinetics after single IV and single/multiple oral doses of Compound 1, absolute oral bioavailability;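 also: phase 1 study design: one IV dose, then escalating single oral doses, fed versus fasted single oral dosing, and once-daily oral dosing over 14 days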
Conditions: human, plasma; for Tmax: median
Description: In the single ascending dose (SAD) phase, subjects in Cohort 1a received a single IV dose in Period A and then rising single oral doses in Periods B to D. Subjects in Cohort 1b received a single oral dose under fed and fasted conditions in Periods E and F. Subjects in Cohorts 2 and 3 received once-daily oral doses for 14 days, as did subjects in Cohort 4 as part of an in vivo screen for drug-drug interaction (DDI) potential.
For SAD Cohorts 1a and 1b, urine samples for the determination of Compound 1A were collected through 48 hrs after dosing.
Forty-six (46) subjects were enrolled into the study, 8 in Cohort 1a, 10 in Cohort 1b, and 8 each in Cohorts 2 and 3.

## Nc1ncccc1-c1cc(Cc2ccc(COc3ccccn3)cc2)no1 [Compound 1A]
iv, 200 mg
  AUC(0-inf): 87.5 µg·h/mL
  Vd: 124 L and 1.6 L/kg
  clearance: 29.1 mL/min and 0.377 mL/min/kg
iv, 200 mg, AUC(0-24), 200 mg/3 hr IV Compound 1, fasted, geometric mean
  AUC(0-t): 24.4 µg·h/mL
iv, 200 mg, AUC(0-t), 200 mg/3 hr IV Compound 1, fasted, geometric mean
  AUC(0-t): 86.3 µg·h/mL
iv, 200 mg, 200 mg/3 hr IV Compound 1, fasted, geometric mean
  Cmax: 2640 ng/mL
iv, 200 mg, 200 mg/3 hr IV Compound 1, fasted
  Tmax: 3 h
iv, 200 mg, geometric mean t1/2, IV treatment, 200 mg Compound 1 over 3 hrs
  half-life: 49.1 h
iv, 200 mg, t½, 200 mg/3 hr IV Compound 1, fasted, geometric mean
  half-life: 49.1 h
oral
  bioavailability: 90.6 to 101%
oral, 500 mg, AUC(0-24), Day 1, Cohort 2, 500 mg Tablets QD × 14 Days, fed, geometric mean
  AUC(0-t): 50.7 µg·h/mL
oral, 500 mg, AUC(0-24), Day 7, Cohort 2, 500 mg Tablets QD × 14 Days, fed, geometric mean
  AUC(0-t): 154 µg·h/mL
oral, 500 mg, AUC(0-24), Day 14, Cohort 2, 500 mg Tablets QD × 14 Days, fed, geometric mean
  AUC(0-t): 191 µg·h/mL
oral, 500 mg, CL, Day 14, Cohort 2, 500 mg Tablets QD × 14 Days, fed, geometric mean
  CL/F: 0.462 mL/min/kg
oral, 500 mg, Day 1, Cohort 2, 500 mg Tablets QD × 14 Days, fed, geometric mean
  Cmax: 6180 ng/mL
oral, 500 mg, Day 7, Cohort 2, 500 mg Tablets QD × 14 Days, fed, geometric mean
  Cmax: 10900 ng/mL
oral, 500 mg, Day 14, Cohort 2, 500 mg Tablets QD × 14 Days, fed, geometric mean
  Cmax: 12000 ng/mL
oral, 500 mg, Day 1, Cohort 2, 500 mg Tablets QD × 14 Days, fed
  Tmax: 4 h
oral, 500 mg, Day 7, Cohort 2, 500 mg Tablets QD × 14 Days, fed
  Tmax: 3.76 h
oral, 500 mg, Day 14, Cohort 2, 500 mg Tablets QD × 14 Days, fed
  Tmax: 3.75 h
oral, 500 mg, T½, Day 14, Cohort 2, 500 mg Tablets QD × 14 Days, fed, geometric mean
  half-life: 73.4 h
oral, 1000 mg, AUC(0-24), Day 1, Cohort 3, 1000 mg Tablets QD × 14 Days, fed, geometric mean
  AUC(0-t): 119 µg·h/mL
oral, 1000 mg, AUC(0-24), Day 7, Cohort 3, 1000 mg Tablets QD × 14 Days, fed, geometric mean
  AUC(0-t): 316 µg·h/mL
oral, 1000 mg, AUC(0-24), Day 14, Cohort 3, 1000 mg Tablets QD × 14 Days, fed, geometric mean
  AUC(0-t): 326 µg·h/mL
oral, 1000 mg, CL, Day 14, Cohort 3, 1000 mg Tablets QD × 14 Days, fed, geometric mean
  CL/F: 0.582 mL/min/kg
oral, 1000 mg, Day 1, Cohort 3, 1000 mg Tablets QD × 14 Days, fed, geometric mean
  Cmax: 10600 ng/mL
oral, 1000 mg, Day 7, Cohort 3, 1000 mg Tablets QD × 14 Days, fed, geometric mean
  Cmax: 21300 ng/mL
oral, 1000 mg, Day 14, Cohort 3, 1000 mg Tablets QD × 14 Days, fed, geometric mean
  Cmax: 21300 ng/mL
oral, 1000 mg, Day 1, Cohort 3, 1000 mg Tablets QD × 14 Days, fed
  Tmax: 4.5 h
oral, 1000 mg, Day 7, Cohort 3, 1000 mg Tablets QD × 14 Days, fed
  Tmax: 4 h
oral, 1000 mg, Day 14, Cohort 3, 1000 mg Tablets QD × 14 Days, fed
  Tmax: 3.77 h
oral, 1000 mg, T½, Day 14, Cohort 3, 1000 mg Tablets QD × 14 Days, fed, geometric mean
  half-life: 52.6 h
po, 100 mg
  bioavailability: 90.6%
po, 100 mg, 100 mg Oral Compound 1, fasted
  Tmax: 2 h
po, 300 mg
  AUC(0-inf): 122 µg·h/mL
  Vd/F: 142 L and 1.84 L/kg
  bioavailability: 93.1%
po, 300 mg, AUC(0-24), 300 mg Oral Compound 1, fasted, geometric mean
  AUC(0-t): 35.6 µg·h/mL
po, 300 mg, AUC(0-t), 300 mg Oral Compound 1, fasted, geometric mean
  AUC(0-t): 118 µg·h/mL
po, 300 mg, CL/F, 300 mg Oral Compound 1, fasted, geometric mean
  CL/F: 0.405 mL/min/kg
po, 300 mg, 300 mg Oral Compound 1, fasted, geometric mean
  Cmax: 3750 ng/mL
po, 300 mg, 300 mg Oral Compound 1, fasted
  Tmax: 2.5 h
po, 300 mg, t½, 300 mg Oral Compound 1, fasted, geometric mean
  half-life: 52.5 h
po, 400 mg
  bioavailability: 101%
po, 400 mg, 400 mg Oral Compound 1, fasted
  Tmax: 2.5 h
po, 500 mg
  AUC(0-inf): 205 µg·h/mL
  Vd/F: 121 L and 1.62 L/kg
  bioavailability: 93.5%
po, 500 mg, AUC(0-24), 500 mg Oral Compound 1, fasted, geometric mean
  AUC(0-t): 59 µg·h/mL
po, 500 mg, AUC(0-24), Day 1, Cohort 4, 500 mg Oral Solution QD × 14 Days, fed, geometric mean
  AUC(0-t): 56.7 µg·h/mL
po, 500 mg, AUC(0-24), Day 7, Cohort 4, 500 mg Oral Solution QD × 14 Days, fed, geometric mean
  AUC(0-t): 140 µg·h/mL
po, 500 mg, AUC(0-24), Day 14, Cohort 4, 500 mg Oral Solution QD × 14 Days, fed, geometric mean
  AUC(0-t): 153 µg·h/mL
po, 500 mg, AUC(0-t), 500 mg Oral Compound 1, fasted, geometric mean
  AUC(0-t): 197 µg·h/mL
po, 500 mg, CL, Day 14, Cohort 4, 500 mg Oral Solution QD × 14 Days, fed, geometric mean
  CL/F: 0.555 mL/min/kg
po, 500 mg, CL/F, 500 mg Oral Compound 1, fasted, geometric mean
  CL/F: 0.418 mL/min/kg
po, 500 mg, 500 mg Oral Compound 1, fasted, geometric mean
  Cmax: 6410 ng/mL
po, 500 mg, Day 1, Cohort 4, 500 mg Oral Solution QD × 14 Days, fed, geometric mean
  Cmax: 5850 ng/mL
po, 500 mg, Day 7, Cohort 4, 500 mg Oral Solution QD × 14 Days, fed, geometric mean
  Cmax: 10400 ng/mL
po, 500 mg, Day 14, Cohort 4, 500 mg Oral Solution QD × 14 Days, fed, geometric mean
  Cmax: 12300 ng/mL
po, 500 mg, 500 mg Oral Compound 1, fasted
  Tmax: 3 h
po, 500 mg, Day 1, Cohort 4, 500 mg Oral Solution QD × 14 Days, fed
  Tmax: 2 h
po, 500 mg, Day 7, Cohort 4, 500 mg Oral Solution QD × 14 Days, fed
  Tmax: 2 h
po, 500 mg, Day 14, Cohort 4, 500 mg Oral Solution QD × 14 Days, fed
  Tmax: 1 h
